For this experiment, the target named is T1, wild-type EZH2 (PRC2 enzyme) (Homo sapiens, UniProt Q15910).
T1 construct: made in house; host or cells: Spodoptera frugiperda (sf9) cells, baculovirus
The experiment can be described thus: PRC2 enzyme assay on peptide substrates (wild-type EZH2). The settings on record: wild-type PRC2 enzyme 4 nM, H3K27me0 peptide substrate, 3H-SAM Flashplate; read-out: WT EZH2 IC50. It is filed as biochemical. The source says: General Materials. S-adenosylmethionine (SAM), S-adenosylhomocyteine (SAH), bicine, KCl, Tween20, dimethylsulfoxide (DMSO) and bovine skin gelatin (BSG) were purchased from Sigma-Aldrich at the highest level of purity possible. Dithiothreitol (DTT) was purchased from EMD Millipore. ^3H-SAM was purchased from American Radiolabeled Chemicals with a specific activity of 80 Ci/mmol. 384-well streptavidin Flashplates were purchased from PerkinElmer.
Substrates. Peptides representative of human histone H3 residues 21- 44 containing either an unmodified lysine 27 (H3K27me0) or dimethylated lysine 27 (H3K27me2) are synthesized with a C-terminal G(K-biotin) linker-affinity tag motif and a C-terminal amide cap by 21st Century Biochemicals. The peptides are high-performance liquid chromatography (HPLC) purified to greater than 95% purity and confirmed by liquid chromatography mass spectrometry (LC-MS). The sequences are listed below.
Recombinant PRC2 Enzymes. Human PRC2 enzymes were purified as 4-component enzyme complexes co-expressed in Spodoptera frugiperda (sf9) cells using a baculovirus expression system. The subunits expressed were wild-type EZH2 (NM_004456) or EZH2 Y641F, N, H, S or C mutants generated from the wild-type EZH2 construct, EED (NM_003797), Suz12 (NM_015355) and RbAp48 (NM_005610). The EED subunit contained an N-terminal FLAG tag that was used to purify the entire 4-component complex from sf9 cell lysates. The purity of the complexes met or exceeded 95% as determined by SDS-PAGE and Agilent Bioanalyzer analysis. Concentrations of enzyme stock concentrations (generally 0.3-1.0 mg/mL) was determined using a Bradford assay against a bovine serum albumin (BSA) standard.
General Procedure for PRC2 Enzyme Assays on Peptide Substrates. The assays were all performed in a buffer consisting of 20 mM bicine (pH=7.6), 0.5 mM DTT, 0.005% BSG and 0.002% Tween20, prepared on the day of use. Compounds in 100% DMSO (1 μL) were spotted into polypropylene 384-well V-bottom plates (Greiner) using a Platemate 2×3 outfitted with a 384-channel pipet head (Thermo). DMSO (1 μL) was added to columns 11, 12, 23, 24, rows A -H for the maximum signal control, and SAH, a known product and inhibitor of PRC2 (1 μL) was added to columns 11,12, 23, 24, rows I -P for the minimum signal control. A cocktail (40 μL) containing the wild-type PRC2 enzyme and H3K27me0 peptide or any of the Y641 mutant enzymes and H3K27me2 peptide was added by Multidrop Combi (Thermo). The compounds were allowed to incubate with PRC2 for 30 min at 25° C., then a cocktail (10 μL) containing a mixture of non-radioactive and ^3H-SAM was added to initiate the reaction (final volume=51 μL). In all cases, the final concentrations were as follows: wild-type or mutant PRC2 enzyme was 4 nM, SAH in the minimum signal control wells was 1 mM and the DMSO concentration was 1%. The assays were stopped by the addition of non-radioactive SAM (10 μL) to a final concentration of 600 μM, which dilutes the ^3H-SAM to a level where its incorporation into the peptide substrate is no longer detectable. 50 μL of the reaction in the 384-well polypropylene plate was then transferred to a 384-well Flashplate and the biotinylated peptides were allowed to bind to the streptavidin surface for at least 1 h before being washed three times with 0.1% Tween20 in a Biotek ELx405 plate washer. The plates were then read in a PerkinElmer TopCount platereader to measure the quantity of ^3H-labeled peptide bound to the Flashplate surface, measured as disintegrations per minute (dpm) or alternatively, referred to as counts per minute (cpm).
Where dpm=disintegrations per minute, cmpd=signal in assay well, and min and max are the respective minimum and maximum signal controls.
Where top and bottom are the normally allowed to float, but may be fixed at 100 or 0 respectively in a 3-parameter fit. The Hill Coefficient normally allowed to float but may also be fixed at 1 in a 3-parameter fit. […]

Drawing on patent publication US9243001B2, “Substituted benzene compounds” (Epizyme, Inc., priority 2013, dated 2016), this text covers IC50 for 19 molecules.

Usually IC50 stands for the point on the concentration scale where inhibition reaches its midpoint.

T1 sequence (Q15910 1-751 isoform Q15910-2): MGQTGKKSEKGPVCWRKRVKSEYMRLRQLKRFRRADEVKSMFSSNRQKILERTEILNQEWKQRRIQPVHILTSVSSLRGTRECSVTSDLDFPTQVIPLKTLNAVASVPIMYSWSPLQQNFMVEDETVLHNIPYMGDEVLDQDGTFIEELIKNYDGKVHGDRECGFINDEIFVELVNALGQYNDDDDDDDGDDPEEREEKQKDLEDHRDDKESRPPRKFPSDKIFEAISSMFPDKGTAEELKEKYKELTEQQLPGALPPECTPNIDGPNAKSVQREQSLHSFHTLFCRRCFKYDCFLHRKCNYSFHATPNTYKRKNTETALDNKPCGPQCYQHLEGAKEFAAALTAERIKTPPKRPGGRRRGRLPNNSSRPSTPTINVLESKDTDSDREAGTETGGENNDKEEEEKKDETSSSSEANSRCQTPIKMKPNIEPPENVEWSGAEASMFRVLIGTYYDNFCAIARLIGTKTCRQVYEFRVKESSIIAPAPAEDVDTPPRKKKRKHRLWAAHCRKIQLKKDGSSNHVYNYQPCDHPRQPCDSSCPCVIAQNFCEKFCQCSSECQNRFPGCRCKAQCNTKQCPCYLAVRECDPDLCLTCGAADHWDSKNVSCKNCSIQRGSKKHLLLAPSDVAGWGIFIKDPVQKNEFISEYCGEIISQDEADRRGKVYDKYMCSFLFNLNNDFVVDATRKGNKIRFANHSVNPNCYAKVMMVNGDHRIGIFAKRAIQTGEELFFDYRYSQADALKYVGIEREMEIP
T1 sequence (O75530 whole entry partner): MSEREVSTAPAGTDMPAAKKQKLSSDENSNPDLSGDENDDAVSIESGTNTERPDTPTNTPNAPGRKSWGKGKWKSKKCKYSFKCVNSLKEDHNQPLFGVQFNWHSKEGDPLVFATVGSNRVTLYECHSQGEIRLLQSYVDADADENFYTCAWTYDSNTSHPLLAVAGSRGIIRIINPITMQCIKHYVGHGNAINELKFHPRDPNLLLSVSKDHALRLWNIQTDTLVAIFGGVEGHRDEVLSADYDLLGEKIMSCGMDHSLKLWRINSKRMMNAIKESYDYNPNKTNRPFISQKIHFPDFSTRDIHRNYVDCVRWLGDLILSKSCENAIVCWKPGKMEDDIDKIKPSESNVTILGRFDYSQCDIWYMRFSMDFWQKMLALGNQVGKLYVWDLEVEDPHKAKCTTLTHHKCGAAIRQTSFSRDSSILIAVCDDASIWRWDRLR
T1 sequence (Q15022 whole entry partner): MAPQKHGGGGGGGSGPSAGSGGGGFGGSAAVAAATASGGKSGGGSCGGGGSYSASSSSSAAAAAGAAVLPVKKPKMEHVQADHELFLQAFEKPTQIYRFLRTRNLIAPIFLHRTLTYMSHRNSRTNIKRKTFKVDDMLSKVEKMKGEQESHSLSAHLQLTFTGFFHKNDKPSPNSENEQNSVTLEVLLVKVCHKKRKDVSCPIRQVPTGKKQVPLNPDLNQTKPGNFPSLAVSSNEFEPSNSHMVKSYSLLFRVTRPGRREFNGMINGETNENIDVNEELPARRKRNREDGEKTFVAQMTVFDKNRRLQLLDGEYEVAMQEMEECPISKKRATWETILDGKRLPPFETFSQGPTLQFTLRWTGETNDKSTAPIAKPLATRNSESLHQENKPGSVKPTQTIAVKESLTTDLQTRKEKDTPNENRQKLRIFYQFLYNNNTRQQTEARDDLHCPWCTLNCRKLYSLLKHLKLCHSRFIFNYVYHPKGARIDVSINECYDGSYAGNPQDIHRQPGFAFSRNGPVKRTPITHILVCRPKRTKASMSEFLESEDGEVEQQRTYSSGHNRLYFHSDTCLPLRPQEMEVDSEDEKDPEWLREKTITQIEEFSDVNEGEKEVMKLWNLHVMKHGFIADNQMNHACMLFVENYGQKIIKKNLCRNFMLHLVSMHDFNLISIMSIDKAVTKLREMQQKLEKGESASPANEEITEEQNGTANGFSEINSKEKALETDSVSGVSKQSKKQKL
T1 sequence (Q09028 whole entry partner): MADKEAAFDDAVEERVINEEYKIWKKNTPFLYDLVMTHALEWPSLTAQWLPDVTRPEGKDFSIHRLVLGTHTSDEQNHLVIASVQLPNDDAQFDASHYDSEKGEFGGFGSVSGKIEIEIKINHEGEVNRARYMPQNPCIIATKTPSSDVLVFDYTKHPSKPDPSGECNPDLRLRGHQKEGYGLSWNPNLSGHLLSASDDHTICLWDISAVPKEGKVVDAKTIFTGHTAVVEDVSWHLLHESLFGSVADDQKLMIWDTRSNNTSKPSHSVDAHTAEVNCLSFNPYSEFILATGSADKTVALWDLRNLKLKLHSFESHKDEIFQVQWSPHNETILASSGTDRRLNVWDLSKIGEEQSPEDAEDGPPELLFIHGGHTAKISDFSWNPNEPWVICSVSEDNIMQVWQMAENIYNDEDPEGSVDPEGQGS

Take `CCN(c1cc(Cl)cc(C(=O)NCCc2nc3ccccc3s2)c1C)[C@H]1CC[C@H](N(C)C)CC1` [Compound 13, N-(2-(benzo[d]thiazol-2-yl)ethyl)-5-chloro-3-(((trans)-4-(dimethylamino)cyclohexyl)(ethyl)amino)-2-methylbenzamide]: the half-maximal inhibitory concentration (IC50) turned out to be 37.7 µM.
For `CCN(c1cc(Cl)cc(C(=O)NCCc2nc3ccccc3o2)c1C)[C@H]1CC[C@H](N(C)C)CC1` [Compound 14, N-(2-(benzo[d]oxazol-2-yl)ethyl)-5-chloro-3-(((trans)-4-(dimethylamino)cyclohexyl)(ethyl)amino)-2-methylbenzamide] the value was 6.55 µM.
For `CCN(c1cc(Cl)cc(C(=O)NCc2ncc[nH]2)c1C)[C@H]1CC[C@H](N(C)C)CC1` [Compound 15, N-((1H-imidazol-2-yl)methyl)-5-chloro-3-(((trans)-4-(dimethylamino)cyclohexyl)(ethyl)amino)-2-methylbenzamide] the value was more than 10 µM.
Consider `CCN(c1cc(Cl)cc(C(=O)NCc2nccn2C)c1C)[C@H]1CC[C@H](N(C)C)CC1` [Compound 16, 5-chloro-3-(((tans)-4-(dimethylamino)cyclohexyl)(ethyl)amino)-2-methyl-N-((1-methyl-1H-imidazol-2-yl)methyl)benzamide], for which the 50% inhibitory concentration (IC50) was found to be 3.11 µM.
Regarding `CCN(c1cc(Cl)cc(C(=O)NCc2nccn2Cc2ccccc2)c1C)[C@H]1CC[C@H](N(C)C)CC1` [Compound 17, N-((1-benzyl-1H-imidazol-2-yl)methyl)-5-chloro-3-(((1r,4r)-4-(dimethylamino)cyclohexyl)(ethyl)amino)-2-methylbenzamide], the IC50 worked out at 2.99 µM.
Consider `CCN(c1cc(Cl)cc(C(=O)NCc2nccn2C(C)C)c1C)[C@H]1CC[C@H](N(C)C)CC1` [Compound 18, 5-chloro-3-(((trans)-4-(dimethylamino)cyclohexyl)(ethyl)amino)-N-((1-isopropyl-1H-imidazol-2-yl)methyl)-2-methylbenzamide], for which the half-maximal inhibitory concentration (IC50) was more than 10 µM.
For `CCN(c1cc(Cl)cc(C(=O)NCc2nc3ccccc3[nH]2)c1C)[C@H]1CC[C@H](N(C)C)CC1` [Compound 19, N-((1H-benzo[d]imidazol-2-yl)methyl)-5-chloro-3-(((1r,4r)-4-(dimethylamino)cyclohexyl)(ethyl)amino)-2-methylbenzamide], the concentration for half-maximal inhibition (IC50) was more than 10 µM.
For `CCN(c1cc(Cl)cc(C(=O)NCc2ncc(C)[nH]2)c1C)[C@H]1CC[C@H](N(C)C)CC1` [Compound 20, 5-chloro-3-(((trans)-4-(dimethylamino)cyclohexyl)(ethyl)amino)-2-methyl-N-((5-methyl-1H-imidazol-2-yl)methyl)benzamide], the IC50 was more than 10 µM.
As for `CCN(c1cc(Cl)cc(C(=O)NCCc2nc3ccccc3[nH]2)c1C)[C@H]1CC[C@H](N(C)C)CC1` [Compound 21, N-(2-(1H-benzo[d]imidazol-2-yl)ethyl)-5-chloro-3-(((1r,4r)-4-(dimethylamino)cyclohexyl)(ethyl)amino)-2-methylbenzamide], the IC50 turned out to be 37.1 µM.
Regarding `CCN(c1cc(Cl)cc(C(=O)NCc2cncn2C)c1C)C1CCOCC1` [Compound 22, 5-chloro-3-(ethyl(tetrahydro-2H-pyran-4-yl)amino)-2-methyl-N-((1-methyl-1H-imidazol-5-yl)methyl)benzamide], the IC50 was more than 50 µM.
`CCN(c1cc(Cl)cc(C(=O)NCc2nccn2C)c1C)C1CCOCC1` [Compound 23, 5-chloro-3-(ethyl(tetrahydro-2H-pyran-4-yl)amino)-2-methyl-N-((1-methyl-1H-imidazol-2-yl)methyl)benzamide]: the IC50 was 23.7 µM.
For the molecule `CCN(c1cc(Cl)cc(C(=O)NCc2nccs2)c1C)C1CCOCC1` [Compound 24, 5-chloro-3-(ethyl(tetrahydro-2H-pyran-4-yl)amino)-2-methyl-N-(thiazol-2-ylmethyl)benzamide], the IC50 was more than 50 µM.
`CCN(c1cc(Cl)cc(C(=O)NCc2cn(C)cn2)c1C)C1CCOCC1` [Compound 25, 5-chloro-3-(ethyl(tetrahydro-2H-pyran-4-yl)amino)-2-methyl-N-((1-methyl-1H-imidazol-4-yl)methyl)benzamide]: the IC50 is 7.82 µM.
For `CCN(c1cc(Cl)cc(C(=O)NCc2cn3ccsc3n2)c1C)C1CCOCC1` [Compound 26, 5-chloro-3-(ethyl(tetrahydro-2H-pyran-4-yl)amino)-N-(imidazo[2,1-b]thiazol-6-ylmethyl)-2-methylbenzamide] the value was more than 50 µM; for `CCN(c1cc(Cl)cc(C(=O)NCc2cnn(C)c2C)c1C)C1CCOCC1` [Compound 27, 5-chloro-N-((1,5-dimethyl-1H-pyrazol-4-yl)methyl)-3-(ethyl(tetrahydro-2H-pyran-4-yl)amino)-2-methylbenzamide], more than 50 µM; for `CCN(c1cc(Cl)cc(C(=O)NCc2ccn(C)n2)c1C)C1CCOCC1` [Compound 28, 5-chloro-3-(ethyl(tetrahydro-2H-pyran-4-yl)amino)-2-methyl-N-((1-methyl-1H-pyrazol-3-yl)methyl)benzamide], 14.8 µM.
Regarding `CCN(c1cc(Cl)cc(C(=O)NCc2cc(C)on2)c1C)C1CCOCC1` [Compound 29, 5-chloro-3-(ethyl(tetrahydro-2H-pyran-4-yl)amino)-2-methyl-N-((5-methylisoxazol-3-yl)methyl)benzamide], the IC50 was more than 50 µM.
As for `CCN(c1cc(Cl)cc(C(=O)NCc2c[nH]cn2)c1C)C1CCOCC1` [Compound 30, N-((1H-imidazol-4-yl)methyl)-5-chloro-3-(ethyl(tetrahydro-2H-pyran-4-yl)amino)-2-methylbenzamide], the IC50 worked out at 0.32 µM.
For the molecule `CCN(c1cc(Cl)cc(C(=O)NCc2cc(C)nn2C)c1C)C1CCOCC1` [Compound 31, 5-chloro-N-((1,3-dimethyl-1H-pyrazol-5-yl)methyl)-3-(ethyl(tetrahydro-2H-pyran-4-yl)amino)-2-methylbenzamide], the IC50 is more than 50 µM.
